# “Also recorded” adds a separate entry of the source.
# What was measured:
# [1] = NMR based GSH-reactivity assay; format: in vitro ADME; details: CD3CN:PBS 1:1, 37 °C
# Procedure: NMR Assay: To 0.5 ml of assay buffer (1:1 CD3CN : 100 mM PBS in H2O), the individual diyne tags (10 mmol) were added, transferred to an NMR tube and 1H NMR spectra was acquired. To another 0.5 ml of the assay buffer, GSH (100 mmol) was added, which was then transferred to the NMR tube containing the buffer solution of the tags. The solution was mixed by inverting the tube several times. A final solution of 5 mmol tag and 50 mM GSH was achieved, a magnetic stirbar was added to the tubes and the NMR tubes were left on a stirplate at 37 °C. 1H NMR was recorded at 310 K (37 °C) after ~5 min and 24 h of reaction set up.
# (§1) (1 picture or pasted object on this page, not shown here)
# ES2 cells = assay: AlamarBlue cell viability assay; format: cell-based; details: Homo sapiens, ES-2, incubation 72 h
# Procedure: Cell Culture. Human ovarian cancer cell line ES2 was purchased from the American Type Culture Collection, and cells maintained in a humidified incubator at 37°C and 5% CO2 in Dulbecco’s Modified Eagle Medium (DMEM, high glucose, Pyruvate, No Glutamine) (Gibco, cat#21969035), 10% FCS, 1% L-Glutamine (200 mM, ThermoFisher, cat#25-030-081), 1% Pen/Strep (ThermoFisher, cat# […]
# AlamarBlue cell viability assay. ES2 cells were plated in sextuplicate wells in a 96-well plate at 3000 cells per well. Compounds were made up as 10 mM stocks in DMSO and added to the cells after 24 h at a range of concentrations (100 µM, 30 µM, 10 µM, 3 µM, 1 µM, 0.3 µM, 0.1 µM, 0.03 µM, 0.01 µM, DMSO only) in 100µl. As a background control 6 wells were plated with media with added DMSO and without cells. After 72 h, 11µl (10%) alamarBlue cell viability reagent (ThermoFisher, cat# DAL1025) was added to each well, including the background control. The plate was incubated at 37°C for 4 h after which the absorbance of the wells was measured with a standard spectrophotometer (Tecan Spark 20M) read at 540nm excitation and 580nm emission wavelength. For each sample the background signal intensity was subtracted from the sample signal intensity and then normalized to the DMSO […]
# Subsequent analysis was performed on GraphPad Prism 9 software where the concentrations were converted to a logarithmic scale to which a non -linear regression curve was fitted using the log(inhibitor) vs normalized response with a variable slope model to calculate EC50 values.
# Figure S3. EC50 values for compounds 3a – 3n in ES2 cells. Values calculated from 6 technical replicates following incubation for 72 h.
# as §1
# [2] = LC-MS based glutathione (GSH) reactivity assay; format: in vitro ADME; details: for conversion to GS-adduct over 24 h / extent of conversion to GS-adducts (in words) / conversion to GS-adduct within 5 min: GSH, ACN:PBS buffer (1:1), 37 °C; for conversion to GS-adduct over 24 h / conversion to GS-adduct within 5 min: LC-MS 254 nm; for extent of conversion to GS-adducts (in words): runs at 5 min, 2 h; for conversion to GS-adduct over 24 h / extent of conversion to GS-adducts (in words): 24 h; for GSH reactivity compared with the electronically similar tag: 3b vs 3a, 3f vs BADY, 3g vs 3e, data not shown
# Procedure: LC-MS Assay: To 0.5 ml of GSH (50 mmol) in assay buffer (100 mM PBS in H2O) at 37 °C, 0.5 ml of the diyne tag (5 mmol) in CH3CN was added to give a final concentration of 25 mmol and 2.5 mmol of GSH and diyne tags respectively. A magnetic stirbar was added to the assay mixture and stirred at 37 °C. Aliquots from the assay mixture were pipetted out and diluted for LC-MS (ESI+) submissions at 5 min, 2 h and 24 h time points. The chromatogram peaks at 254 nm were extracted to pick the UV-active [M+H]+ values corresponding to the unreacted tags and GS-Tag adducts. Relative intensity (or % conversion) of GS-Tag adduct compared to the unreacted tag for individual LC -MS run was calculated by taking the percentage of mAUGS-Tag divided by mAUGS-Tag + mAUunreacted tag (if A -> B, then % conversion = B/A+B). When [M+H]+ peak of the unreacted tag was below detectable limits, adduct […]
# Figure S4. Overlay of the UV-active chromatograms extracted at 254 nm from the LC-MS runs of 3a, 3d, BADY, 3e, 3j and 3k. The chromatograms for each tag at 5 min (black), 2 h (green), 24 h (red) are overlaid. Minimal (3a, BADY), partial (3e) and full (3d, 3j and 3k) conversion were observed which correlated with the ring electronics. […]
# are overlaid in a single graph. Conversion is deemed complete when the tag (M) was below detectable limits. * Tags isolated as a mixture of hetero-and homodimers or insoluble in the assay buffer (3i and 3c) were not included in the study. Tags 3b, 3f and 3g have not been shown as their reactivities were similar to the electronicall y similar 3a, BADY and 3e respectively. […]
# as §1
Compound,EC50 (ES2 cells),conversion to GS-adduct over 24 h [2],extent of conversion to GS-adducts (in words) [2],GSH reactivity compared with the electronically similar tag [2],further results
COC(=O)c1ccc(C#CC#Cc2cncn2C)n1C [3 a],≥ 100 µM,1–2%,Minimal,–,change of 1H NMR 24 h post GSH addition [1]: no changes
COC(=O)c1ccc(C#CC#Cc2cncn2C)cc1 [3 b],≥ 100 µM,–,–,similar,–
COC(=O)c1ccc(C#CC#Cc2nccs2)cc1 [3 d],–,reacted completely,complete conversion,–,conversion to GS-adduct within 5 min [2]: ~25%; extent of conversion to GS-adducts (in words) ([2]; listed as 3d): full
COC(=O)c1ccc(C#CC#Cc2ccccn2)cc1 [3 e],17.6 µM,~25%,partial,–,–
COC(=O)c1ccc(C#CC#Cc2cccnc2)cc1 [3 f],≥ 100 µM,–,–,similar,–
COC(=O)c1ccc(C#CC#Cc2ccncc2)cc1 [3 g],24.1 µM,–,–,similar,–
COC(=O)c1ccc(C#CC#Cc2ccccn2)nc1 [3 i],1.63 µM,–,–,–,–
COC(=O)c1ccc(C#CC#Cc2ncccn2)nc1 [3 j],0.54 µM,–,complete conversion,–,conversion to GS-adduct within 5 min [2]: reacted completely; also recorded: complete conversion; conversion to GS-adduct within 5 min ([2]; listed as 3j): full conversion; extent of conversion to GS-adducts (in words) ([2]; listed as 3j): full
"C(C#Cc1ccccc1)#Cc1ccccc1 [BADY, reference compound]",≥ 100 µM,1–2%,Minimal,–,change of 1H NMR 24 h post GSH addition [1]: no changes

# Reference: article PMC10946950, “Stretching the Bisalkyne Raman Spectral Palette Reveals a New Electrophilic Covalent Motif” (Chemistry (Weinheim an Der Bergstrasse, Germany), 2023)
